Measured values reported in patent publication US5624924A, “Quinobenzothiazine antineoplastic agents” (priority 1994, dated 1997).
Where “and” joins values, the source holds several entries; their conditions need not be identical. Identical values can stand only once. Counter-ions that a name gives are not always drawn.

Key:
[1] = system: P388 ascitic leukemia; test: In vivo activity against systemic tumor P388; set-up: species or system mouse; conditions: 20 mg/kg IP once daily, five days; positive control
Description: Prior to testing, P388 was propagated intraperitoneally in female DBA2 mice. The ascitic tumors were intraperitoneally injected in female B6 D2 F1 mice at a concentration of 10^6 cells per mouse. The mice were treated with antiumor agents administered once daily for five consecutive days, with the antineoplastic 5-fluorouracil used as a positive control.
All drugs were administered intraperitoneally in 5% aqueous dextrose or other suitable diluent. Drug efficacy was evaluated based on prolongation of mean survival time (MST). Improvement of MST was calculated as % MST(T/C), the percent ratio of mean survival times of test (T) versus control (C) mice. Compounds having % MST(T/C) values greater than 125 are considered to have significant activity. The antitumor activity of the two compounds in the P388 systemic leukemia model is illustrated in Table 3 below.

[2] = system: A549 human lung cancer cell line; test: In vitro cytotoxicity (MTT), A549; format: cell-based; conditions: A549, 72 h, read-out: In Vitro Cytotoxicity (IC50), A549, Table 2, ADR: average of two tests
Description: (§1) Metabolic activity was measured by the cells' ability to reduce the tetrazolium dye, 3-(4,5-dimethylthiazol-2-yl)-2,5-diphenyltetrazolium bromide (MTT), to a quantifiable colored formasan derivative. Surviving cells reduce the MTT dye. The inhibitory concentrations of killing 50% of the cells (IC50 s) were calculated. Testing was in accord with the following protocol:
(§2) Test compounds and a reference antineoplastic agent, ADRIAMYCIN (doxorubicin hydrochloride), were dissolved in dimethyl sulfoxide (DMSO) and diluted, first with Earle's Balanced Salt Solution, followed by culture medium, to twice the highest concentration of the compound to be tested. From this concentrated stock, two-fold serial dilutions were prepared in 96-well microtiter trays, each well containing twice the desired final concentration of the compound. Each concentration was tested in triplicate and compared to triplicate drug-free controls.
(§3) The cells were grown in the same medium used for diluting the compounds. Adherent cells were harvested by trypsinization according to the following procedure:
(§4) After harvesting by trypsinization, viable cell counts were determined and cell density was adjusted to 25,000 cells/mL. Inoculum (0.1 mL) was then added to each well for a final concentration of 2,500 cells per well. Addition of the inoculum was used to dilute the test compounds to the desired concentration.
(§5) Microtiter trays were incubated for three days at 36° C. in a humidified atmosphere containing 5% carbon dioxide.
(§6) After three days, 20 microliters of 5 mg/mL MTT in phosphate-buffered solution were added to each well of the microtiter trays. The microtiter trays were then returned to the incubator for two to four hours to allow the surviving cells to reduce the dye. After this incubation, both the medium and the unreduced dye were removed by aspiration. DMSO was added to each well to dissolve the water-insoluble, colored end product of the dye reduction for spectrophotometric measurement at 570 nm.
(§7) The results obtained which clearly show the cytotoxicity of the compounds of Examples 5, 6, 7 and 8 against […] tumor cell lines A549, HCT-8, HT-29 and P388-D1, are illustrated in Table 1. (A549 is a human lung cancer cell line; HCT-8 is a human colon cancer cell line; HT-29 is a human colon cancer cell line; and P388-D1 is a mouse leukemia cell line.)

[3] = system: P388 mouse leukemia cell line; test: In vitro cytotoxicity (MTT), P388; format: cell-based; conditions: P388, 72 h, read-out: In Vitro Cytotoxicity (IC50)
Description: as §1, §2, §3, §4, §5, §6
(§8) Compounds from Examples 4, 6, 8, 9 and 10 were additionally tested against human and murine tumor cell lines A549, HT-29, P388-D1, P388, P388-ADR(0.0), P388-ADR(0.1) and B16F109. (P388 is a mouse leukemia cell line similar to P388-D1, but animal-passaged; P388-ADR (0.0) is an ADRIAMYCIN-resistant variant of P388, the inoculum of which is grown in drug-free medium; P388-ADR (0.1) is an ADRIAMYCIN-resistant variant of P388, the inoculum of which is grown in medium with 0.1 mcg.ml ADRIAMYCIN; and B16F10 is a mouse melanoma.) The results are presented in Table 2; as shown in the table, the compounds of the present invention are effective cytotoxic agents even against the ADRIAMYCIN-resistant cell line P388-ADR.

[4] = system: P388-ADR(0.0), ADRIAMYCIN-resistant variant of P388; test: In vitro cytotoxicity (MTT), P388-ADR(0.0); format: cell-based; conditions: Mus musculus, 72 h, inoculum grown in drug-free medium, Table 2
Description: as §1, §2, §3, §4, §5, §6, §8

[5] = system: B16F10 mouse melanoma; test: In vitro cytotoxicity (MTT), B16F10; format: cell-based; conditions: B16-F10, 72 h, read-out: In Vitro Cytotoxicity (IC50)
Description: as §1, §2, §3, §4, §5, §6, §8

[6] = system: HT-29 human colon cancer cell line; test: In vitro cytotoxicity (MTT), HT-29; format: cell-based; conditions: HT-29, 72 h, read-out: In Vitro Cytotoxicity (IC50), HT-29, Table 2, ADR: average of two tests
Description: as §1, §2, §3, §4, §5, §6, §7

[7] = Aqueous solubility; format: physicochemical; conditions: water
Source text: The effect of peptidyl substitution on the solubility of the compounds of the invention was examined by dissolving samples thereof in water.

Row | solubility [7] [mg/mL] | SMILES | % MST(T/C) [1] | IC50 [2] [µg/mL] | IC50 [3] [µg/mL] | IC50 [4] [µg/mL] | IC50 [5] [µg/mL] | IC50 [6] [µg/mL]
1 | – | O=c1[nH]cc(F)c(=O)[nH]1 [5-Fluorouracil, 5-fluorouracil, reference compound] | 160% and 186.67% | – | – | – | – | –
2 | – | Cc1ccc2c(c1)Oc1c(N3CC[C@H](N)C3)c(F)cc3c(=O)c(C(=O)O)cn-2c13 [Example 18, 1-((3S)-3-aminopyrrolidin-1-yl)-2-fluoro-9-methyl-4-oxo-4H-quino[2,3,4-i,j][1,4]benzoxazine-5-carboxylic acid hydrochloride] | – | 0.11 | 0.047 | 0.13 | 0.024 | 0.04
3 | – | NC1CCN(c2c(F)cc3c(=O)c(C(=O)N4CCOCC4)cn4c3c2Oc2ccccc2-4)C1 (stereo not shown) [Example 29, 1-(3-aminopyrrolidin-1-yl)-2-fluoro-5-(1-morpholinocarbonyl)-4-oxo-4H-quino[2,3,4-i,j][1,4]benzoxazine trifluoracetate salt] | – | 6 | 0.54 | 49.4 | 0.56 | 1.4
4 | 11.1 | CCC[C@H](NC(=O)[C@@H](N)CCC)C(=O)NC1CCN(c2c(F)cc3c(=O)c(C(=O)O)cn4c3c2Oc2ccccc2-4)C1 (stereo partly shown) [Example 38, 1-(3-Norvalylnorvalylaminopyrrolidin-1-yl)-2-fluoro-4-oxo-4H-quino[2,3,4-i,j][1,4]benzoxazine-5-carboxylic acid hydrochloride] | – | – | – | – | – | –
5 | > 47.8 | CCC[C@H](N)C(=O)N[C@@H](C)C(=O)NC1CCN(c2c(F)cc3c(=O)c(C(=O)O)cn4c3c2Oc2ccccc2-4)C1 (stereo partly shown) [Example 40, 1-(3-Norvalylalanylaminopyrrolidin-1-yl)-2-fluoro-4-oxo-4H-quino[2,3,4-i,j][1,4]benzoxazine-5-carboxylic acid hydrochloride] | – | – | – | – | – | –
